Experimental data taken from paper PMC10974276, “Physiological Functions of the Cello-Oligosaccharides Binding CebE in the Pathogenic Streptomyces sp. AMCC400023” (Microorganisms, 2024).

Experiments:
[1] = biological target: T1, CebE^5601; test: microscale thermophoresis; type: binding, Streptomyces sp. AMCC400023; conditions: 25 °C; protein 800 nM, dye-labelled; ligand series from 100 µM
T1 construct: N-terminal His tag (pET28a); E. coli BL21(C43); Ni-NTA; labelled with red fluorescent dye

[2] = biological target: T2, CebE^7671; test: microscale thermophoresis; type: binding, Streptomyces sp. AMCC400023; conditions: 25 °C; protein 800 nM, dye-labelled; ligand series from 270 mM
T2 construct: N-terminal His tag (pET28a); E. coli BL21(C43); Ni-NTA

| Compound | Kd [1] | Kd [2] |
| --- | --- | --- |
| OC[C@H]1O[C@@H](O[C@H]2[C@H](O)[C@@H](O)C(O)O[C@@H]2CO)[C@H](O)[C@@H](O)[C@@H]1O (stereo partly shown) [cellobiose] | 0.977 µM | 1280 µM |
| OC[C@H]1O[C@@H](O[C@H]2[C@H](O)[C@@H](O)[C@H](O[C@H]3[C@H](O)[C@@H](O)C(O)O[C@@H]3CO)O[C@@H]2CO)[C@H](O)[C@@H](O)[C@@H]1O (stereo partly shown) [cellotriose] | 1.61 µM | 2720 µM |
